{"source": "patent US20140170208A1", "about": "“TRANSDERMAL PATCH FORMULATION” (LABTEC GMBH, priority 2009, published 2014)", "key": {"[1]": {"text": "Pilot Test Regarding the Solubility of Rasagiline Base in Non-Volatile Solvents for Use in a TDS\n1.1 Solubility of Rasagiline Base"}, "[2]": {"procedure": "Rasagiline base (50 mg) was dissolved in the presented solvents (0.14 g) and the placed into an over at 70° C. to monitor its loss.", "remark": "listed apart in the source"}, "[3]": {"procedure": "1.5 Further Solubility Experiments Using IPM and “Silicone Oil 1000”\n1.7 Concentrating of Rasagiline in IPM\n2.2 Solubility of Rasagiline in Polidocanol\nExperiment 3.8: Rasagiline Solubility in a Plastoid Bneutral Oil Solution\n• 50 mg rasagiline WE 8596 in 300 mg Plastoid B-solution from exp.", "remark": "listed apart in the source"}, "[4]": {"conditions": "ca. 20-25 mg in 0.5 g or mL, ca. 1:20 mixture"}, "[5]": {"conditions": "ca. 20-25 mg in 1.0 g or mL, ca. 1:40 mixture"}}, "note": "Where two headings read alike, the source gives them in different places."}
{"smiles": "C#CCN[C@@H]1CCc2ccccc21", "note": "[rasagiline base, rasagiline]", "values": [{"measurement": "Solubility of rasagiline base in Cremophor EL", "setting": "[1]; [4]", "result": "Nearly completely"}, {"measurement": "Solubility of rasagiline base in Glycerol anhydrous", "setting": "[1]; [4]", "result": "Not Solubilised"}, {"measurement": "Solubility of rasagiline base in Isopropyl myristate (IPM)", "setting": "[1]; [4]", "result": "Solubilised"}, {"measurement": "Solubility of rasagiline base in PEG 400", "setting": "[1]; [4]", "result": "Solubilised"}, {"measurement": "Solubility of rasagiline base in Polysorbat 80", "setting": "[1]; [4]", "result": "Solubilised"}, {"measurement": "Solubility of rasagiline base in Propylenglycol", "setting": "[1]; [4]", "result": "Solubilised"}, {"measurement": "Solubility of rasagiline base in Silicone oil 1000", "setting": "[1]; [4]", "result": "Not Solubilised"}, {"measurement": "Solubility of rasagiline base in Vitamin-E-acetate", "setting": "[1]; [4]", "result": "Nearly completely"}, {"measurement": "Solubility of rasagiline base in paraffine, viscous", "setting": "[1]; [4]", "result": "Not Solubilised"}, {"measurement": "Solubility of rasagiline base in Cremophor EL", "setting": "[1]; [5]", "result": "Solubilised"}, {"measurement": "Solubility of rasagiline base in Glycerol anhydrous", "setting": "[1]; [5]", "result": "Not completely solubilised,"}, {"measurement": "Solubility of rasagiline base in Isopropyl myristate (IPM)", "setting": "[1]; [5]", "result": "Solubilised"}, {"measurement": "Solubility of rasagiline base in PEG 400", "setting": "[1]; [5]", "result": "Solubilised"}, {"measurement": "Solubility of rasagiline base in Polysorbat 80", "setting": "[1]; [5]", "result": "Solubilised"}, {"measurement": "Solubility of rasagiline base in Propylenglycol", "setting": "[1]; [5]", "result": "Solubilised"}, {"measurement": "Solubility of rasagiline base in Silicone oil 1000", "setting": "[1]; [5]", "result": "Solubilised"}, {"measurement": "Solubility of rasagiline base in Vitamin-E-acetate", "setting": "[1]; [5]", "result": "Solubilised"}, {"measurement": "Solubility of rasagiline base in paraffine, viscous", "setting": "[1]; [5]", "result": "Solubilised"}, {"measurement": "Loss of rasagiline substance after removal of solvent by drying (FIG. 3)", "setting": "[2]; 50 mg in 0.14 g pure water, oven at 70° C.", "result": "significant sublimation"}, {"measurement": "Sublimation of rasagiline base at 60-70° C.", "setting": "[2]; melted in beaker glass at 60-70° C., covered with ice-cold watch glass", "result": "re-sublimates"}, {"measurement": "Rasagiline solubility in a Plastoid B neutral oil solution", "setting": "[3]", "result": "dissolved"}, {"measurement": "Solubility in silicone oil 1000", "setting": "[3]", "result": "25-30 mg/g silicone oil 1000"}, {"measurement": "Solubility of rasagiline in polidocanol", "setting": "[3]", "result": "completely soluble"}]}
